As usually defined, the LD50 is the dose at which mortality reaches 50%. A higher LD50 goes with a less toxic substance. In general, ED50 refers to the dose that gives a 50% effect, or the effect in half of the subjects.

Data set [1] can be described thus: Acute oral toxicity, median lethal dose (LD50). Conditions: mouse, in vivo, male ICR mice, deaths counted for 14 days. As to the method: Each test compound was suspended in a 0.2% CMC-Na solution in various concentrations to make test suspension. The test suspensions were administered orally to male ICR mice (10 in each group) at various doses. The number of dead mice was counted for 14 days and the value of mediam lethal dose (LD50, g/kg) was calculated by the Hitchifield-Wilcoxon method.

For data set [2], the system named is serum ALT activity induced by CCl4. The data set is described as follows: Protective effect against acute hepatic damage induced by carbon tetrachloride (serum ALT). The format is in vivo. Conditions: Mus musculus; mice, 50 mg/kg oral, 6 h before CCl4 (50 ul/kg oral); ALT 24 h after CCl4; read-out: Inhibitory (%): protective effect against increase of serum ALT activity induced by CCl4. As to the method:
Principle; Carbon tetrachloride (CCl4) is a well-known hepatotoxic agent, thus widely used to produce experimental animal models for screening the potential drugs acting upon hepatic diseases. In this experiment test compounds were administered to mice prior to treatment with CCl4. 24 Hours after the CCl4 treatment, the animals were sacrificed and serum alanine aminotransferase (ALT) levels were determined. The hepatoprotective effect of a test compound was evaluated by the suppressive action against the increase of serum ALT induced by CCl4.
Method; The experimental animals were divided into normal, CCl4 treated and test compound treated groups. Each group consisted of 8 mice with body weight of 20-25 grams. The test compounds were suspended in 0.2% sodium carboxy methyl cellulose (CMC-Na) solution and administered orally at the dose of 50 mg/125 ml/kg body weight. Only the vehicle, 0.2% CMC-Na solution, was administered to the normal and to the CCl4 treated group instead of the test compound suspension. 6 Hours after the drug administration, the CCl4 solution in olive oil was administered orally to the CCl4 treated- and the test compound treated group at the dose of 50 ul/25 ml olive oil/kg body weight. The normal group was administered olive oil only at the same dose. 24 Hours after the CCl4 administration, blood samples were collected from the orbital sinus of the animals and the sera were obtained by centrifugation The serum ALT activities were monitored using an automatic blood analyzer (Gilford, SBA 300). The hepatoprotective effect of the test compounds was expressed by the suppressive percentage against the increase of serum ALT level induced by CCl4 calculated by the following formula; [formula]

Data set [3] relates to serum ALT level after CCl4 treatment. Briefly: Determination of 50% inhibitory dose (ID50) against CCl4-induced serum ALT increase. The format is in vivo. As to conditions: Mus musculus; mice, oral, 6 h before CCl4; estimated from dose-response curve at 50, 25, 12.5, 6.25 mg/kg. As to the method:
Principle The various doses of test compounds were administered to mice, followed by the treatment with CCl4 after 6 hours. 24 Hours after the CCl4 treatment, the serum ALT level of the animals were determined. The hepatoprotective effect of the test compounds and the doses were plotted to form dose-response curves. The ID50 doses of the test compounds were estimated from the dose-response curves.
Method; The experimental animals were divided into normal, CCl4 treated and test compound treated groups. Each group consisted of 8 mice with body weight of 20-25 grams. The test compounds were suspended in 0.2% CMC-Na solution and administered orally at a dose of 50 mg, 25 mg, 12.5 mg, or 6.25 mg/125 ml/kg body weight. Only the vehicle, 0.2% CMC-Na solution, was administered to the normal and to the CCl4 treated group instead of the test compound suspension. 6 Hours after the drug administration, the CCl4 solution in olive oil was administered orally to the CCl4 treated and the test compound treated groups at the dose of 50 ul/25 ml olive oil/kg body weight. The normal group was administered olive oil only at the same dose. 24 Hours after the CCl4 administration, blood samples were collected from the orbital sinus of the animals and the sera were obtained by centrifugation. The serum ALT activities were monitored and the hepatoprotective effect of the test compounds were calculated by the same method as described in experiment 1. The inhibitory percentages were plotted against the corresponding doses of the test compounds to make dose-response curves. The 50% inhibitory dose of test compound was estimated from the dose-response curve.

Where only a bound is given, the exact number is not on record here.

The molecule `CC(C)OC(=O)C(C(=O)NC1CCSC1=O)=C1SC=CS1` (centres unmarked) [14(a)] came in with a 50% lethal dose (LD50) at 336 h in data set [1] of more than 5000 mg/kg. The inhibition in vivo at 50 mg/kg in data set [2] amounted to 99.2%. In data set [3], the 50% effective dose (ED50) is 10 mg/kg.

Regarding `CCOC(=O)C(C(=O)NC1CCSC1=O)=C1SC=CS1` (centres unmarked) [14(b), Ethyl 2-(1,3-dithiol-2-ylidene)-2-[N-(tetrahydrothiophen-2-on-3-yl)carbamoyl]acetate], in data set [1], the LD50 at 336 h is more than 4000 mg/kg. The inhibition in vivo at 50 mg/kg in data set [2] worked out at 88.7%. Moreover, in data set [3], the ED50 is 25 mg/kg.

For the molecule `CC(C)OC(=O)C(C(=O)Nc1ccccc1)=C1SC=CS1` [17(a), Isopropyl 2-(1,3-dithiol-2-ylidene)-2-(N-phenylcarbamoyl)acetate], the LD50 at 336 h in data set [1] was determined as 3000 mg/kg. The inhibition in vivo at 50 mg/kg in data set [2] was found to be 100%. Also, the ED50 in data set [3] is 8 mg/kg.

In turn, `CCC(C)OC(=O)C(C(=O)Nc1ccccc1)=C1SC=CS1` (centres unmarked) [17(b), sec-Butyl 2-(1,3-dithiol-2-ylidene)-2-(N-phenylcarbamoyl)acetate] had an LD50 at 336 h in data set [1] of more than 5000 mg/kg. For the same molecule, the inhibition in vivo at 50 mg/kg in data set [2] stood at 99.8%. The ED50 in data set [3] was 12.5 mg/kg.

As to `CCOC(=O)C(C(=O)Nc1ccccc1)=C1SC=CS1` [17(c), Ethyl 2-(1,3-dithiol-2-ylidene)-2-(N-phenylcarbamoyl)acetate], the LD50 at 336 h in data set [1] was more than 5000 mg/kg. The inhibition in vivo at 50 mg/kg in data set [2] amounted to 100%. Further, in data set [3], the ED50 was 8 mg/kg.

Consider `COC(=O)C(C(=O)Nc1ccccc1)=C1SC=CS1` [17(d), Methyl 2-(1,3-dithiol-2-ylidene)-2-(N-phenylcarbamoyl)acetate], for which the inhibition in vivo at 50 mg/kg in data set [2] came out at 98.2%. In addition, the ED50 in data set [3] is 20 mg/kg.

Take `CC(C)OC(=O)C(C(=O)Nc1ccc(F)c(Cl)c1)=C1SC=CS1` [17(k)]: the inhibition in vivo at 50 mg/kg in data set [2] was found to be 93.8%. Moreover, the ED50 in data set [3] was 6.25 mg/kg.

In the case of `CCOC(=O)C(C(=O)Nc1ccc(OC)cc1)=C1SC=CS1` [17(m), Ethyl 2-(1,3-dithiol-2-ylidene)-2-[N-(4-methoxyphenyl)carbamoyl]acetate], the inhibition in vivo at 50 mg/kg in data set [2] is 61.5%. For the same molecule, the ED50 in data set [3] was 50 mg/kg.

As to `CCC(C)OC(=O)C(C(=O)Nc1ccc(OC)cc1)=C1SC=CS1` (centres unmarked) [17(n), sec-Butyl 2-(1,3-dithiol-2-ylidene)-2-[N-(4-methoxyphenyl)carbamoyl]acetate], the LD50 at 336 h in data set [1] was more than 5000 mg/kg. Also, the inhibition in vivo at 50 mg/kg in data set [2] is 96.5%. The ED50 in data set [3] was 10 mg/kg.

In data set [1], `CC(C)OC(=O)C(C(=O)Nc1ccccn1)=C1SC=CS1` [18(a), Isopropyl 2-(1,3-dithiol-2-ylidene)-2-[N-(2-pyridyl)carbamoyl]acetate] returned an LD50 at 336 h of 4200 mg/kg. The inhibition in vivo at 50 mg/kg in data set [2] came out at 99.8%. The ED50 in data set [3] was less than 6.25 mg/kg.

Turning to `CCC(C)OC(=O)C(C(=O)Nc1ccccn1)=C1SC=CS1` (centres unmarked) [18(b), sec-Butyl 2-(1,3-dithiol-2-ylidene)-2-[N-(2-pyridyl)carbamoyl]acetate], in data set [1], the LD50 at 336 h was 5000 mg/kg. Moreover, the inhibition in vivo at 50 mg/kg in data set [2] was found to be 100%. The median effective dose (ED50) in data set [3] is 7 mg/kg.

Regarding `CC(C)OC(=O)C(C(=O)Nc1cccnc1)=C1SC=CS1` [18(c), Isopropyl 2-(b 1,3-dithiol-2-ylidene)-2-[N-(3-pyridyl)carbamoyl]acetate], the inhibition in vivo at 50 mg/kg in data set [2] turned out to be 100%. For the same molecule, in data set [3], the ED50 is 6.25 mg/kg.

`CC(C)OC(=O)C(C(=O)Nc1ccncc1)=C1SC=CS1` [18(d), Isopropyl 2-(1,3-dithiol-2-ylidene)-2-[N-(4-pyridyl)carbamoyl]acetate]: the LD50 at 336 h in data set [1] worked out at 1100 mg/kg. Moreover, in data set [2], the inhibition in vivo at 50 mg/kg was 99.7%. Besides, the ED50 in data set [3] is less than 6.25 mg/kg.

Molecule `Cc1ccnc(NC(=O)C(C(=O)OC(C)C)=C2SC=CS2)c1` [18(e), Isopropyl 2-(1,3-dithiol-2-ylidene)-2-[N-(4-methyl-2-pyridyl)carbamoyl]acetate] had an LD50 at 336 h in data set [1] of more than 5000 mg/kg. For the same molecule, the inhibition in vivo at 50 mg/kg in data set [2] stood at 99.7%. The ED50 in data set [3] is 20 mg/kg.

In data set [1], `Cc1cccc(NC(=O)C(C(=O)OC(C)C)=C2SC=CS2)n1` [18(f), Isopropyl 2-(1,3-dithiol-2-ylidene)-2-[N-(6-methyl-2-pyridyl)carbamoyl]acetate] yielded an LD50 at 336 h of more than 5000 mg/kg. In data set [2], the inhibition in vivo at 50 mg/kg amounted to 100%. The median effective dose (ED50) in data set [3] is 12.5 mg/kg.

`CC(C)OC(=O)C(C(=O)Nc1ccc(Cl)cn1)=C1SC=CS1` [18(g)]: the LD50 at 336 h in data set [1] is more than 5000 mg/kg. The inhibition in vivo at 50 mg/kg in data set [2] was determined as 77.3%. In addition, in data set [3], the ED50 is 25 mg/kg.

In data set [1], `Cc1cc(NC(=O)C(C(=O)OC(C)C)=C2SC=CS2)no1` [18(h), Isopropyl 2-(1,3-dithiol-2-ylidene)-2-[N-(5-methyl-3-isoxazolyl)carbamoyl]acetate] returned an LD50 at 336 h of more than 5000 mg/kg. Further, the inhibition in vivo at 50 mg/kg in data set [2] stood at 100%. Also, in data set [3], the ED50 is 9 mg/kg.

Take `CC(C)OC(=O)C(C(=O)Nc1nncs1)=C1SC=CS1` [18(i), Isopropyl 2-(1,3-dithiol-2-ylidene)-2-[N-(1,3,4-thiadiazol-2-yl)carbamoyl]acetate]: the LD50 at 336 h in data set [1] was more than 5000 mg/kg. Also, the inhibition in vivo at 50 mg/kg in data set [2] is 100%. Further, in data set [3], the ED50 is less than 6.25 mg/kg.

In data set [1], `Cc1nnc(NC(=O)C(C(=O)OC(C)C)=C2SC=CS2)s1` [18(j)] had a median lethal dose (LD50) at 336 h of more than 5000 mg/kg. For the same molecule, in data set [2], the inhibition in vivo at 50 mg/kg is 100%. For the same molecule, the ED50 in data set [3] is 10 mg/kg.

For the molecule `CC(C)OC(=O)C(C(=O)Nc1cnccn1)=C1SC=CS1` [18(l), Isopropyl 2-(1,3-dithiol-2-ylidene)-2-[N-(pyrazin-2yl)carbamoyl]acetate], the LD50 at 336 h in data set [1] was more than 5000 mg/kg. The inhibition in vivo at 50 mg/kg in data set [2] is 99.8%. Further, the ED50 in data set [3] was less than 6.25 mg/kg.

For the molecule `CC(C)OC(=O)C(C(=O)Nc1[nH]cnc1C(N)=O)=C1SC=CS1` [18(o), Isopropy 2-(1,3-dithiol-2-ylidene)-2-[N-(4-carboxamido-5-imidazolyl)carbamoyl]acetate], the LD50 at 336 h in data set [1] was more than 5000 mg/kg. Also, the inhibition in vivo at 50 mg/kg in data set [2] was determined as 98.7%. In addition, the ED50 in data set [3] is 25 mg/kg.

With `CC(C)OC(=O)C(C(=O)Nc1nccs1)=C1SC=CS1` [19(a), Isopropyl 2-(b 1,3-dithiol-2-ylidene)-2-[N-(2-thiazolyl)-carbamoyl) acetate], the LD50 at 336 h in data set [1] was more than 5000 mg/kg. Besides, the inhibition in vivo at 50 mg/kg in data set [2] was determined as 100%. Also, in data set [3], the ED50 was 6.25 mg/kg.

`CCOC(=O)C(C(=O)Nc1nccs1)=C1SC=CS1` [19(b)] displayed an LD50 at 336 h in data set [1] of 2500 mg/kg. Besides, the inhibition in vivo at 50 mg/kg in data set [2] came out at 101%. Moreover, the ED50 in data set [3] was 6.25 mg/kg.

With `CCC(C)OC(=O)C(C(=O)Nc1nccs1)=C1SC=CS1` (centres unmarked) [19(c), sec-Butyl 2-(1,3-dithiol-2-ylidene)-2-[N-(2-thiazolyl)-carbamoyl]acetate], the inhibition in vivo at 50 mg/kg in data set [2] worked out at 100%. In addition, in data set [3], the ED50 is less than 6.25 mg/kg.

`Cc1csc(NC(=O)C(C(=O)OC(C)C)=C2SC=CS2)n1` [19(d), Isopropyl 2-(1,3-dithiol-2-ylidene)-2-[N-(4-methyl-2-thiazolyl)carbamoyl]acetate]: the LD50 at 336 h in data set [1] is 5000 mg/kg. In addition, the inhibition in vivo at 50 mg/kg in data set [2] is 97.2%. In addition, the ED50 in data set [3] is less than 6.25 mg/kg.

For the molecule `Cc1cnc(NC(=O)C(C(=O)OC(C)C)=C2SC=CS2)s1` [19(e), Isopropyl 2-(1,3-dithiol-2-ylidene)-2-[N-(5-methyl-2-thiazolyl)carbamoyl]acetate], the inhibition in vivo at 50 mg/kg in data set [2] amounted to 9.2%. Moreover, the ED50 in data set [3] was 25 mg/kg.

As for `CCOC(=O)C(C(=O)Nc1ccc(O)cc1)=C1SC=CS1` [22(b), Ethyl 2-(1,3-dithiol-2-ylidene)-2-[N-(4-hydroxyphenyl)-carbamoyl]acetate], in data set [2], the inhibition in vivo at 50 mg/kg came to 90.9%. In addition, the ED50 in data set [3] is less than 12.5 mg/kg.

Values taken from patent publication US5158950A, “1,3-dithiol-2-ylidene derivatives and process for the preparation thereof” (Yuhan Corporation, Ltd., priority 1987, dated 1992).
